Test results: PMC9688307 (2022)

What was measured:
[1] = tested on: BP34 (DNA, aptamer) CGCCGTTGGTGTGGTGGGCCTAGGGCCGGCGGCG; test: ITC; details: 100 mM NaCl, 25 mM KCl, 10 mM MgCl2; 25 mM Tris-HCl pH 8.0, 2% DMSO; 500 μM BPA into 30 μM aptamer
[2] = tested on: BP33-14GT (DNA, aptamer) CCGCCGTTGGTGTTGTGGGCCTAGGGCCGGCGG; test: ITC; details: 100 mM NaCl, 25 mM KCl, 10 mM MgCl2; 25 mM Tris-HCl pH 8.0, 2% DMSO; 500 μM BPA into 30 μM aptamer
[3] = tested on: BP33-stem-6GT (DNA, aptamer) CCGCCTTTGGTGTGGTGGGCCTAGGGCCGGCGG; test: ITC; details: 100 mM NaCl, 25 mM KCl, 10 mM MgCl2; 25 mM Tris-HCl pH 8.0, 2% DMSO; 500 μM BPA into 30 μM aptamer
[4] = tested on: BP33-8TA (DNA, aptamer) CCGCCGTAGGTGTGGTGGGCCTAGGGCCGGCGG; test: ITC; details: 100 mM NaCl, 25 mM KCl, 10 mM MgCl2; 25 mM Tris-HCl pH 8.0, 2% DMSO; 500 μM BPA into 30 μM aptamer
[5] = tested on: BP31 (DNA, aptamer) CGCCGTTGGTGTGGTGGGCCTAGGGCCGGCG; test: ITC; details: 100 mM NaCl, 25 mM KCl, 10 mM MgCl2; 25 mM Tris-HCl pH 8.0, 2% DMSO; 500 μM BPA into 30 μM aptamer
[6] = tested on: BP33 (DNA, aptamer) CCGCCGTTGGTGTGGTGGGCCTAGGGCCGGCGG; test: ITC; details: 100 mM NaCl, 25 mM KCl, 10 mM MgCl2; 25 mM Tris-HCl pH 8.0, 2% DMSO; 500 μM BPA into 30 μM aptamer
[7] = tested on: BP33-20CA (DNA, aptamer) CCGCCGTTGGTGTGGTGGGACTAGGGCCGGCGG; test: ITC; details: 100 mM NaCl, 25 mM KCl, 10 mM MgCl2; 25 mM Tris-HCl pH 8.0, 2% DMSO; 500 μM BPA into 30 μM aptamer
[8] = tested on: BP40 (DNA, aptamer) CCGCCGTTGGTGTGGTGGGCCTAGGGCCGGCGGCGCACAG; test: ITC; details: 100 mM NaCl, 25 mM KCl, 10 mM MgCl2; 25 mM Tris-HCl pH 8.0, 2% DMSO; 500 μM BPA into 30 μM aptamer
[9] = tested on: BP33-22TA (DNA, aptamer) CCGCCGTTGGTGTGGTGGGCCAAGGGCCGGCGG; test: ITC; details: 100 mM NaCl, 25 mM KCl, 10 mM MgCl2; 25 mM Tris-HCl pH 8.0, 2% DMSO; 500 μM BPA into 30 μM aptamer
[10] = tested on: BP63 (DNA, aptamer) CCGGTGGGTGGTCAGGTGGGATAGCGTTCCGCGTATGGCCCAGCGCATCACGGGTTCGCACCA; test: ITC; details: 100 mM NaCl, 25 mM KCl, 10 mM MgCl2; 25 mM Tris-HCl pH 8.0, 2% DMSO; 200 μM BPA into 20 μM aptamer
[11] = tested on: BP33-18GT (DNA, aptamer) CCGCCGTTGGTGTGGTGTGCCTAGGGCCGGCGG; test: ITC; details: 100 mM NaCl, 25 mM KCl, 10 mM MgCl2; 25 mM Tris-HCl pH 8.0, 2% DMSO; 500 μM BPA into 30 μM aptamer
[12] = tested on: BP33-26GT (DNA, aptamer) CCGCCGTTGGTGTGGTGGGCCTAGGTCCGGCGG; test: ITC; details: 100 mM NaCl, 25 mM KCl, 10 mM MgCl2; 25 mM Tris-HCl pH 8.0, 2% DMSO; 500 μM BPA into 30 μM aptamer
[13] = tested on: BP33-7TA (DNA, aptamer) CCGCCGATGGTGTGGTGGGCCTAGGGCCGGCGG; test: ITC; details: 100 mM NaCl, 25 mM KCl, 10 mM MgCl2; 25 mM Tris-HCl pH 8.0, 2% DMSO; 500 μM BPA into 30 μM aptamer
[14] = tested on: BP33-13TA (DNA, aptamer) CCGCCGTTGGTGAGGTGGGCCTAGGGCCGGCGG; test: ITC; details: 100 mM NaCl, 25 mM KCl, 10 mM MgCl2; 25 mM Tris-HCl pH 8.0, 2% DMSO; 500 μM BPA into 30 μM aptamer
[15] = tested on: BP33-11TA (DNA, aptamer) CCGCCGTTGGAGTGGTGGGCCTAGGGCCGGCGG; test: ITC; details: 100 mM NaCl, 25 mM KCl, 10 mM MgCl2; 25 mM Tris-HCl pH 8.0, 2% DMSO; 500 μM BPA into 30 μM aptamer
[16] = tested on: BP33-9GT (DNA, aptamer) CCGCCGTTTGTGTGGTGGGCCTAGGGCCGGCGG; test: ITC; details: 100 mM NaCl, 25 mM KCl, 10 mM MgCl2; 25 mM Tris-HCl pH 8.0, 2% DMSO; 500 μM BPA into 30 μM aptamer
[17] = tested on: BP35 (DNA, aptamer) CCGCCGTTGGTGTGGTGGGCCTAGGGCCGGCGGCG; test: ITC; details: 100 mM NaCl, 25 mM KCl, 10 mM MgCl2; 25 mM Tris-HCl pH 8.0, 2% DMSO; 500 μM BPA into 30 μM aptamer
[18] = tested on: BP33-stem-30GT (DNA, aptamer) CCGCCGTTGGTGTGGTGGGCCTAGGGCCGTCGG; test: ITC; details: 100 mM NaCl, 25 mM KCl, 10 mM MgCl2; 25 mM Tris-HCl pH 8.0, 2% DMSO; 500 μM BPA into 30 μM aptamer
[19] = tested on: BP33-21CA (DNA, aptamer) CCGCCGTTGGTGTGGTGGGCATAGGGCCGGCGG; test: ITC; details: 100 mM NaCl, 25 mM KCl, 10 mM MgCl2; 25 mM Tris-HCl pH 8.0, 2% DMSO; 500 μM BPA into 30 μM aptamer
[20] = tested on: BP55 (DNA, aptamer) CCGCCGTTGGTGTGGTGGGCCTAGGGCCGGCGGCGCACAGCTGTTATAGACGTCT; test: ITC; details: 100 mM NaCl, 25 mM KCl, 10 mM MgCl2; 25 mM Tris-HCl pH 8.0, 2% DMSO; 500 μM BPA into 30 μM aptamer
[21] = tested on: BP33-stem-29GT (DNA, aptamer) CCGCCGTTGGTGTGGTGGGCCTAGGGCCTGCGG; test: ITC; details: 100 mM NaCl, 25 mM KCl, 10 mM MgCl2; 25 mM Tris-HCl pH 8.0, 2% DMSO; 500 μM BPA into 30 μM aptamer
[22] = tested on: BP33-10GT (DNA, aptamer) CCGCCGTTGTTGTGGTGGGCCTAGGGCCGGCGG; test: ITC; details: 100 mM NaCl, 25 mM KCl, 10 mM MgCl2; 25 mM Tris-HCl pH 8.0, 2% DMSO; 500 μM BPA into 30 μM aptamer
[23] = tested on: BP33-17GT (DNA, aptamer) CCGCCGTTGGTGTGGTTGGCCTAGGGCCGGCGG; test: ITC; details: 100 mM NaCl, 25 mM KCl, 10 mM MgCl2; 25 mM Tris-HCl pH 8.0, 2% DMSO; 500 μM BPA into 30 μM aptamer
[24] = tested on: BP33-25GT (DNA, aptamer) CCGCCGTTGGTGTGGTGGGCCTAGTGCCGGCGG; test: ITC; details: 100 mM NaCl, 25 mM KCl, 10 mM MgCl2; 25 mM Tris-HCl pH 8.0, 2% DMSO; 500 μM BPA into 30 μM aptamer
[25] = tested on: BP33-15GT (DNA, aptamer) CCGCCGTTGGTGTGTTGGGCCTAGGGCCGGCGG; test: ITC; details: 100 mM NaCl, 25 mM KCl, 10 mM MgCl2; 25 mM Tris-HCl pH 8.0, 2% DMSO; 500 μM BPA into 30 μM aptamer
[26] = tested on: BP33-23AT (DNA, aptamer) CCGCCGTTGGTGTGGTGGGCCTTGGGCCGGCGG; test: ITC; details: 100 mM NaCl, 25 mM KCl, 10 mM MgCl2; 25 mM Tris-HCl pH 8.0, 2% DMSO; 500 μM BPA into 30 μM aptamer
[27] = tested on: BP33-27CA (DNA, aptamer) CCGCCGTTGGTGTGGTGGGCCTAGGGACGGCGG; test: ITC; details: 100 mM NaCl, 25 mM KCl, 10 mM MgCl2; 25 mM Tris-HCl pH 8.0, 2% DMSO; 500 μM BPA into 30 μM aptamer
[28] = tested on: BP29-3'-MB (DNA, aptamer) GCCGTTGGTGTGGTGGGCCTAGGGCCGGC; test: square wave voltammetry, aptamer-modified gold electrode; details: 100 mM NaCl, 25 mM KCl, 10 mM MgCl2, 25 mM Tris-HCl pH 8.0
[29] = tested on: BP50 (DNA, aptamer) CCGCCGTTGGTGTGGTGGGCCTAGGGCCGGCGGCGCACAGCTGTTATAGA; test: ITC; details: 100 mM NaCl, 25 mM KCl, 10 mM MgCl2; 25 mM Tris-HCl pH 8.0, 2% DMSO; 500 μM BPA into 30 μM aptamer
[30] = tested on: BP25 (DNA, aptamer) CGTTGGTGTGGTGGGCCTAGGGCCG; test: ITC; details: 100 mM NaCl, 25 mM KCl, 10 mM MgCl2; 25 mM Tris-HCl pH 8.0, 2% DMSO; 500 μM BPA into 30 μM aptamer
[31] = tested on: BP27 (DNA, aptamer) CCGTTGGTGTGGTGGGCCTAGGGCCGG; test: ITC; details: 100 mM NaCl, 25 mM KCl, 10 mM MgCl2; 25 mM Tris-HCl pH 8.0, 2% DMSO; 500 μM BPA into 30 μM aptamer
[32] = tested on: BP29 (DNA, aptamer) GCCGTTGGTGTGGTGGGCCTAGGGCCGGC; test: ITC; details: 100 mM NaCl, 25 mM KCl, 10 mM MgCl2; 25 mM Tris-HCl pH 8.0, 2% DMSO; 500 μM BPA into 30 μM aptamer
[33] = tested on: BP33-16TA (DNA, aptamer) CCGCCGTTGGTGTGGAGGGCCTAGGGCCGGCGG; test: ITC; details: 100 mM NaCl, 25 mM KCl, 10 mM MgCl2; 25 mM Tris-HCl pH 8.0, 2% DMSO; 500 μM BPA into 30 μM aptamer
[34] = tested on: BP45 (DNA, aptamer) CCGCCGTTGGTGTGGTGGGCCTAGGGCCGGCGGCGCACAGCTGTT; test: ITC; details: 100 mM NaCl, 25 mM KCl, 10 mM MgCl2; 25 mM Tris-HCl pH 8.0, 2% DMSO; 500 μM BPA into 30 μM aptamer
[35] = tested on: BP33-12GT (DNA, aptamer) CCGCCGTTGGTTTGGTGGGCCTAGGGCCGGCGG; test: ITC; details: 100 mM NaCl, 25 mM KCl, 10 mM MgCl2; 25 mM Tris-HCl pH 8.0, 2% DMSO; 500 μM BPA into 30 μM aptamer
[36] = 100 μM tested, no remarkable current change

## CC(C)(c1ccc(O)cc1)c1ccc(O)cc1
[1]
  Kd: 307 ± 249 µM
[2]
  binding: no
[3]
  binding: no
[4]
  binding: no
[5]
  Kd: 13.4 ± 1.5 µM
[6]
  Kd: 10.5 ± 1.5 µM
[7]
  Kd: 14.6 ± 0.9 µM
[8]
  Kd: 15.4 ± 0.9 µM
[9]
  Kd: 15.2 ± 0.9 µM
[10]
  binding: no
[11]
  binding: no
[12]
  binding: no
[13]
  Kd: 68.4 ± 4.9 µM
[14]
  Kd: 22.6 ± 6.9 µM
[15]
  Kd: 24.4 ± 1.8 µM
[16]
  binding: no
[17]
  Kd: 20.2 ± 1.0 µM
[18]
  Kd: 51.2 ± 10.4 µM
[19]
  Kd: 10.5 ± 0.7 µM
[20]
  Kd: 11.6 ± 1.0 µM
[21]
  binding: no
[22]
  binding: no
[23]
  binding: no
[24]
  binding: no
[25]
  binding: no
[26]
  binding: no
[27]
  Kd: 16.0 ± 2.2 µM
[28]; current increased 88% at 500 μM BPA
  binding: yes
[29]
  Kd: 9.5 ± 0.5 µM
[30]
  binding: no
[31]
  Kd: 56 ± 9.0 µM
[32]
  Kd: 12.4 ± 3.4 µM
[33]
  Kd: 24.4 ± 1.6 µM
[34]
  Kd: 12.5 ± 0.8 µM
[35]
  binding: no

## CN(C)[C@@H]1C(=O)C(C(N)=O)=C(O)[C@@]2(O)C(=O)C3=C(O)c4c(O)cccc4[C@@](C)(O)[C@H]3C[C@@H]12
[28]; [36]
  binding: no

## CN(C)[C@@H]1C(=O)C(C(N)=O)=C(O)[C@@]2(O)C(=O)C3=C(O)c4c(O)cccc4[C@@](C)(O)[C@H]3[C@H](O)[C@@H]12
[28]; [36]
  binding: no

## O=S(=O)(c1ccc(O)cc1)c1ccc(O)cc1
[28]; [36]
  binding: no

## Oc1ccc(-c2ccc(O)cc2)cc1
[28]; [36]
  binding: no
